Test results published in patent publication US10071042B2, “External dermatological agent for anti-ageing” (Hayashibara Co., Ltd., priority 2014, dated 2018).
Where two headings read alike, the source gives them in different places. Marks after values point to notes of the source that are not given here.

Experiments:
[1] = tested on: elastin; experiment: Elastin production of normal human dermal fibroblasts, colorimetric kit (Experiment 4); assay type: cell-based; details: 2 days, control = 100%
Description: Normal human dermal fibroblasts (NHDF), which had been suspended in a Dulbecco's Modified Eagle Medium supplemented with 10% fetal calf serum to give a cell concentration of 3×10^5 cells/mL, were placed in 24-well plates by 0.5 mL/well and cultured for one day. The cultured cells were washed with Dulbecco's phosphate buffered saline and cultured for another two days in a Dulbecco's Modified Eagle Medium, supplemented with any one of the test substances in Table 5 at respective concentrations shown in the table, to induce elastin synthesis. Thereafter, each culture supernatant was collected, and the remaining cells were washed with one milliliter of Dulbecco's phosphate buffered saline, added with 0.1 mL of 0.25% trypsin and ethylenediaminetetraacetate, followed by incubation at 37° C. for two minutes to detach the cells from the plates. A half milliliter of Dulbecco's phosphate buffered saline was added to each plate, and the resulting cell suspensions were collected in a 1.5-mL tube which was then subjected to centrifugation (3,000×g for five minutes) to collect the cells. Elastin was quantified with a colorimetric determination kit commercialized by Biocolor Ltd., […]. The previously collected supernatant was used to suspend the collected cells, to which was then added 0.16 mL of 1 M oxalic acid, a reagent affixed to the kit, and incubated at 100° C. for one hour to solubilize elastin. To the solubilized elastin placed in a container was added 0.66 mL of an elastin precipitant as a reagent affixed to the kit, mixed for 15 min while repeatedly reversing the container, and centrifuged at 10,000×g for 10 min to precipitate proteins. A half milliliter of a dye, as a reagent affixed to the kit, was added to the resulting precipitate, followed by repeatedly reversing the container for 90 min and centrifuged at 10,000×g for 10 min to collect sediments bound with the dye. Thereafter, the collected sediments were added with 0.25 mL of a dye separator as a reagent affixed to the kit, and mixed for one hour while repeatedly reversing a container with the resulting mixture, followed by determining the absorbance of the resulting mixture at a wavelength of 490 nm and calculating the amount of elastin per well. A calibration curve was generated with an accessory for the kit. A control system was provided by similarly treating normal human dermal fibroblasts (NHDF) without adding any test substance and determined for its absorbance at a wavelength of 490 nm. Regarding the absorbance as 100%, the production level of elastin of each test substance was comparatively evaluated based on the following equation. Equation: Production level of elastin (relative value (%))=[(Absorbance of a sample with any one of test substances)/(Absorbance of control)]×100
(§1) The experiment was repeated three times, and the data was compared to that of control with the Dunnett's multiple comparisons test. The symbol “*” means a level of significance of p<0.01.

[2] = tested on: normal human dermal fibroblasts (NHDF); experiment: Number of cells, Alamar Blue (Experiment 4); assay type: cell-based; details: control = 100%
Description: To confirm cell proliferation under the above conditions tested, normal human dermal fibroblasts (NHDF), which had been suspended in a Dulbecco's Modified Eagle Medium supplemented with 10% fetal calf serum to give a cell concentration of 2.5×10^5 cells/mL, were placed in 96-well microplates by 0.1 mL/well and cultured for one day. The resulting cells were washed with Dulbecco's phosphate buffered saline and cultured for another two days in a Dulbecco's Modified Eagle Medium supplemented with any one of the test substances in Table 5. The culture supernatants were removed from the microplates, to which were then added 0.2 mL/well of a dilution of “Alamar Blue” diluted with the same culture medium as used in the above by 10 folds to react with the cells at 37° C. for two hours, followed by measuring the fluorescent intensity of the cells at an excitation wavelength of 544 nm and a fluorescent wavelength of 590 nm and obtaining the variation of the number of cells with the addition of any one of the test substances based on the fluorescent intensity of a control system, which had been treated similarly as in the above except for not adding any of the test substances, being regarded as 100%.
as §1

[3] = tested on: 3T3; experiment: TG432: In vitro 3T3 NRU Phototoxicity Test; assay type: cell-based
Description: Based on this, external dermal agent containing any of adenosine N1-oxide 5′-phosphate, analogues thereof, and their salts can be said to be safe.

[4] = tested on: endothelin-1; experiment: Endothelin-1 production after ultraviolet B irradiation, ELISA (Experiment 6); assay type: cell-based, human; details: for Production level of endothelin-1 (%): ultraviolet B 40 mJ/cm^2, control = 100%
Description: Normal human epidermal keratinocytes were proliferated to a confluent state at which the cells were grown over the entire bottom edge of each well of 96-well microplates by using “EpiLife”, a product name of a culture medium containing a growth factor for keratinocytes, commercialized by Life Technologies Corporation, CA, USA, and further cultured for another two days while replacing the medium with a fresh culture medium free of such a growth factor. Thereafter, the resulting cultures were added with sodium adenosine N1-oxide 5′-phosphate to give a concentration of 10, 20, or 50 μM, and allowed to stand for six hours. The cultured cells were washed with Hanks buffer, irradiated with ultraviolet B radiation at an intensity of 40 mJ/cm^2, and further cultured for 24 hours after the addition of a culture medium containing the growth factor. Endothelin-1 in the resulting supernatants was detected with an endothelin-1 specific ELISA kit, commercialized by R&D Systems Inc., MN, USA, colored with tetramethylbenzidine, and measured for absorbance at a wavelength of 450 nm. A control system was provided and similarly treated as above except for not adding sodium adenosine N1-oxide 5′-phosphate and then determined for the production level of endothelin-1 in the resulting culture supernatant to be regarded as 100%. The production level of endothelin-1 for each test substance was comparatively evaluated based on the following equation. Equation: Production level of endothelin-1 (relative value (%))=[(Absorbance of a sample with a test substance)/(Absorbance of control)]×100 The experiment was repeated three times, and the data was compared to that of control with the Dunnett's multiple comparisons test. The symbol “*” means a level of significance of p<0.01.

[5] = tested on: normal human epidermal keratinocytes; experiment: Number of cells, methylene blue (Experiment 6); assay type: cell-based; details: for Number of cells (%): control = 100%
Description: The number of proliferated cells was determined with methylene blue and regarded as 100% for use in calculating the variation of cells with any one of the test substances.

| Compound | Production level of elastin (%) ([1]; 1 μM) | Production level of elastin (%) ([1]; 4 μM) | Production level of elastin (%) ([1]; 10 μM) | Number of cells (%) ([2]; 1 μM) | Number of cells (%) ([2]; 4 μM) | Number of cells (%) ([2]; 10 μM) | optical toxicity [3] | also measured |
| --- | --- | --- | --- | --- | --- | --- | --- | --- |
| Nc1c2ncn([C@@H]3O[C@H](CO)[C@@H](O)[C@H]3O)c2nc[n+]1[O-] [Adenosine N1-oxide, adenosine N1-oxide] | 108.8% | 114.8% | 118.4* % | 99.0% | 98.0% | 94.0% | no optical toxicity | Production level of elastin (%) ([1]; 10 μM, listed as adenosine N1-oxide): about 120% |
| Nc1ncnc2c1ncn2[C@@H]1O[C@H](COP(=O)(O)O)[C@@H](O)[C@H]1O [Adenosine 5′-phosphate, reference compound] | – | – | 114.4% | – | – | 101.0% | – | Production level of elastin (%) ([1]; 40 μM): 117.2%; Production level of elastin (%) ([1]; 100 μM): 120.0* %; Number of cells (%) ([2]; 40 μM): 102.0%; Number of cells (%) ([2]; 100 μM): 99.0% |
| Nc1c2ncn([C@@H]3O[C@H](COP(=O)([O-])O)[C@@H](O)[C@H]3O)c2nc[n+]1[O-].[Na+] [Sodium adenosine N1-oxide 5′-phosphate, sodium adenosine N1-oxide 5′-phosphate] | 98.0% | 105.2% | 121.2* % | 104.0% | 104.0% | 101.0% | – | Production level of elastin (%) ([1]; 10 μM, listed as sodium adenosine N1-oxide 5′-phosphate): about 120%; Production level of endothelin-1 (%) ([4]; 10 μM): 104.5%; Production level of endothelin-1 (%) ([4]; 20 μM): 87.9%; production level of endothelin-1 reduced by ([4]; 50 μM, compared to control): about 50%; Production level of endothelin-1 (%) ([4]; 50 μM): 49.9* %; Number of cells (%) ([5]; 10 μM): 111.4%; Number of cells (%) ([5]; 20 μM): 103.6%; Number of cells (%) ([5]; 50 μM): 100.6%; influence on cell proliferation ([5]; 10 to 50 μM): No influence on cell proliferation; optical toxicity ([3]; OECD test guideline TG432): no optical toxicity |
| 5′-α-glucosyl adenosine N1-oxide [5′-α-Glucosyladenosine N1-oxide] | – | – | – | – | – | – | no optical toxicity | – |
| 3′-α-glucosyl adenosine N1-oxide [3′-α-Glucosyladenosine N1-oxide] | – | – | – | – | – | – | no optical toxicity | – |
